In article PMC4444337 (PLoS ONE, 2015):
“And” between values parts separate entries of the source, which are not always exact repeats. Identical values can stand only once.

Assays:
[1] = system: IL8; assay: IL8 in BALF (Luminex) after RSV challenge; format: in vivo, African green monkeys; settings: both studies
Procedure: The following monkey-specific cytokines were determined in BALF using a Luminex bead analysis according to the manufacturer's protocol: Interleukins (IL)-1b, IL-2, IL-4, IL-5, IL-6, IL-8, IL-10, Interferons (IFN)γ, IFNα, Tumor necrosis factor (TNF)α, Regulated on Activation, Normal T Cell Expressed and Secreted (RANTES), and Macrophage inflammatory protein (MIP)-1α. The non-human primate Luminex beads for IFNγ, IFNα, and IL-10 were provided by Texas Biomedical Research Institute (Texas, USA). The beads for the remaining cytokines were obtained from Millipore (Billerica, MA, USA). The samples for cytokine determination were run in duplicates. Human cytokine standards were used for standard curves and for determination of the lower limit of detection for individual cytokines. The results were read using a Luminex 100 System (Texas, USA).

[2] = system: RSV; parameters: method as in PMID 21148224; settings: slow single bolus injection; cited from earlier work
[3] = system: RSV; settings: cited from earlier work
[4] = Safety analysis: clinical symptoms, blood counts, serum chemistry; format: in vivo, African green monkeys; settings: compound treated vs vehicle treated groups
Procedure: The animals were monitored for clinical symptoms such as body temperature changes indicating a fever, signs of a cold, runny nose, sneezing, loss of appetite, and body weight. Blood counts and serum chemistry were assessed every second day. The safety findings were compared between the vehicle groups and the compound groups, to identify possible compound related adverse events.

[5] = system: RSV subgroup A strain A2; assay: RSV viral load (qRT-PCR, RSV-A F gene) in BALF/throat after RSV A2 challenge; format: in vivo, African green monkeys; settings: for Peak log VL (Median) in BALF: qRT-PCR
Procedure: In Study 1 all animals were followed until day 13 post-inoculation, when the necropsy took place.
In Study 2 all animals were followed until day 15 post-inoculation, when the necropsy took place.
Bronchoalveolar lavage fluid (BALF), nasal and throat swabs and blood samples were collected every 2 days from day 1 postinfection up to day 11 (study 1) and day 13 (study 2). For BALF collection, monkeys were sedated with […] (0.02–0.05 mg/kg) administered intramuscularly to allow passage of sterile laryngoscope and endotracheal tube. BAL was performed by laryngoscopy by inserting a shortened Kendall Sovereign feeding tube and urethral catheter through the endotracheal tube and approximately 10 mL of phosphate buffer saline (10 mL, pH 7.4) was instilled and gently suctioned back into the syringe promptly to recover approximately 5–7 mL of BAL in the syringe. Later, the adjustment of the dilution was done based on urea and protein concentration. White blood cell (WBC) count from BALF was analyzed using automated blood analysis instrumentation (Antech Diagnostics, Lake Success, NY, USA).
All animals were challenged with 1.5mL of 1 × 10^4 pfu/mL RSV subgroup A—strain A2 virus intranasally (i.n.) and intratracheally (i.t.) on day 0. […] The virus was thawed at room temperature and immediately put on ice.
For each inoculation, 1.5 mL were aspirated with a 3 mL syringe. After being anesthetized with 10 mg/mL ketamine, the animals were placed in dorsal recumbency. 0.25 mL of the virus was instilled drop-by-drop into each nostril and allowed to absorb for 20 sec. Once the absorption was complete, a Kendall Sovereign Feeding Tube and Urethral Catheter, Size 5 Fr, was trimmed about one inch on each side and inserted intratracheally using a laryngoscope. Once in place, 1mL of virus was instilled and flushed into the trachea with 7 mL of air.
RNA was extracted using a previously described protocol.
RSV was quantified using one-Step RT-PCR Master Mix reagents (Applied Bio systems, USA). Amplification and detection were performed in a ABI PRISM 7700 Sequence Detection System (Applied Biosystems, USA) under the following conditions: an initial reverse transcription at 48°C for 30 minutes, followed by PCR activation at 95°C for 10minutes and 45 cycles of amplification (15 sec at 95°C and 1minutes at 60°C).
The IEC-B assay was run as control. The viral load (VL) was expressed as RSV A-F copy numbers and transformed in Δ log10 values. The limit of detection was 10 copies of RSV F gene. The antiviral effect was calculated as differences between peak VL and area under the curve (AUC) VL based on Δ log10 RSV from different groups.

[6] = system: RSV subgroup A strain A2; assay: Lung histopathology (inflammation) in RSV-infected animals; format: in vivo, African green monkeys
Procedure: Tissues (administration site, heart, liver, lung, pancreas, skeletal muscle and trachea) were fixed in 10% phosphate-buffered formalin, paraffin-embedded, sectioned at 5 μm, stained with hematoxylin-eosin (H&E) and evaluated microscopically. For the lung, histological examination was performed on the right lung only, the left lung lobe was sampled for bioanalytical purposes. At tissue trimming, representative cross sections were taken from the cranial, mid and caudal lung lobe in all animals including the central part (with large bronchus) and the peripheral part. Three lung sections per animal (cranial, mid and caudal lobe) with two samples each (central and peripheral) were evaluated for each animal. To facilitate comparison between groups, a general overall score for inflammation was given for each lung section. Mean inflammatory scores were determined for each animal (mean of 3 lung lobes) and per dose group (S2 Fig).
The necropsy was performed at day 13 for Study 1 and at Day 15 for Study 2. Before necropsy, a sample for complete blood count and plasma sample was taken. Euthanasia procedures adhered to the current Report of the American Veterinary Medical Association Panel on Euthanasia. The anesthesia was performed with a combination of ketamine hydrochloride (7–15 mg/kg) and either acetylpromazine maleate (acepromazine) (0.55 mg/kg) or xylanin (Rompun) (0.6 mg/kg) followed by exsanguinations via the femoral vein. The blood taken was recorded. Thereafter, an injection of 390 mg/kg sodium pentobarbital intravenously was given. Death was defined as the cessation of respiration and of heartbeat. The necropsy was performed according to BIOQUAL SOPs and a board-certified veterinary pathologist from the Charles River Laboratories, Pathology Associates Division (PAI) was present at necropsy.

[7] = system: RSV; parameters: method as in PMID 21148224, PMID 17722899; settings: single administration, cited from earlier work
[8] = system: RSV-A virus; settings: read-out: EC50 on Hep2 cells, for RSV-A virus; cited from earlier work
[9] = system: RSV; parameters: method as in PMID 19707346, PMID 9359721; settings: cotton rat model; cited from earlier work
[10] = system: RSV; parameters: method as in PMID 19707346, PMID 9359721; settings: pediatric patients; cited from earlier work

Cc1ccc(CCCO)c(NCc2ccc3nc(NCCCN4CCOCC4)n(Cc4nc(C)ccc4O)c3c2)c1 [TMC353121]
IL8 production in BALF, control vs treated animals [1]: no significant reduction in IL8 production
Antiviral activity in rodent models of RSV infection [2]: significant antiviral activity
pEC50 (anti-RSV activity) [3]: 9.9
Drug related adverse events (clinical symptoms, blood counts, serum chemistry) [4]: no drug related adverse events were observed
Plasma exposure at which complete inhibition of RSV shedding was observed ([5]; Px500 arm): 0.39 µg/mL
Timing of peak viral shedding ([5]; Study 1, Px50, 3 out of 5 animals): delayed peak viral shedding from day 7 to day 9
Peak log VL (Median) in BALF ([5]; Study 1, Px50, vehicle Vh1 8.15): 6.88 log10
Δ log (Median): reduction in peak VL vs vehicle treated group, BALF ([5]; Study 1, Px50 vs Vh1): -1.06 log10
Decrease in peak VL in BALF compared with the control group ([5]; Study 1, Tx50): 1.15 log10
Peak log VL (Median) in BALF ([5]; Study 1, Tx50, vehicle Vh1 8.15): 7 log10 and 7.00 log10
Δ log (Median): reduction in peak VL vs vehicle treated group, BALF ([5]; Study 1, Tx50 vs Vh1): -1.1 log10
Peak log VL (Median) in BALF ([5]; Study 2, Px5, vehicle Vh2 5.17): 5.23 log10
Δ log (Median): reduction in peak VL vs vehicle treated group, BALF ([5]; Study 2, Px5 vs Vh2): 0 log10
Viral replication during the entire study ([5]; Study 2, Px500, except one animal with a viral blip at day 10): complete inhibition of viral replication
Peak log VL (Median) in BALF ([5]; Study 2, Px500, vehicle Vh2 5.17): 0 log10
VL in BAL 24h after the drug infusion was stopped ([5]; Study 2, one Px500 animal, day 10, below limit of detection at day 9 in presence of drug): 2 log
Antiviral activity across dose groups ([5]; from 1log10 reduction of peak viral load to complete inhibition of RSV replication): dose-dependent antiviral activity
Delay in peak viral shedding ([5]; prophylactic administrations (Px50, Px5)): 2 days
Peak VL reduction ([5]; therapeutic (+1day postchallenge) or prophylactic administration at exposure levels 3- to 5-fold above the EC50c): 1 log10
Lung histopathology: improvement ([6]; Study 1, Tx50 and Px50 groups): No improvement on lung histopathology
Lung histopathology: inflammatory changes ([6]; Study 2, Px5 group (as vehicle control), slight to marked degree): very pronounced (inflammatory) changes
Lung histopathology: inflammatory changes ([6]; Study 2, Px500 group, minimal to occasionally slight degree): much less pronounced changes
Antiviral effect in treated compared with untreated groups ([7]; mice): 0.5–1 log
Lung histopathology in mice [7]: improved lung histopathology

NC(=O)c1ncn([C@@H]2O[C@H](CO)[C@@H](O)[C@H]2O)n1 [ribavirin]
EC50 [8]: 30 µM

palivizumab: humanized monoclonal antibody indicated for RSV prophylaxis in high-risk children
Exposure level to achieve complete inhibition of the RSV shedding [9]: 40 µg/mL
Exposure levels required to achieve 50% prophylactic effectiveness [10]: 37 to 72 µg/mL
